In article PMC9169098 (Proceedings of the National Academy of Sciences of the …, 2022):

Key:
[1] = molecular target: T1, BceAB (ATPase sites of BceA) (Bacillus subtilis, UniProt O34697); experiment: colorimetric phosphate-release ATPase assay; type: biochemical; details: ATP substrate, 4 mM MgCl2, 37 °C, inhibitor
T1 sequence (O34697 1-253 limits assumed): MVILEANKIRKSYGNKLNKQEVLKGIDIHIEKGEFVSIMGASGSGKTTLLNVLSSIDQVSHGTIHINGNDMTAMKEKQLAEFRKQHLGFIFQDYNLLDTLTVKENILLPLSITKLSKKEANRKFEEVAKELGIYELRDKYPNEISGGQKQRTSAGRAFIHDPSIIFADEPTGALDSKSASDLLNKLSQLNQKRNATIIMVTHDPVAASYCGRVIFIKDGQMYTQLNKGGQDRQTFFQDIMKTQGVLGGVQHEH
T1 sequence (O34741 1-646 partner): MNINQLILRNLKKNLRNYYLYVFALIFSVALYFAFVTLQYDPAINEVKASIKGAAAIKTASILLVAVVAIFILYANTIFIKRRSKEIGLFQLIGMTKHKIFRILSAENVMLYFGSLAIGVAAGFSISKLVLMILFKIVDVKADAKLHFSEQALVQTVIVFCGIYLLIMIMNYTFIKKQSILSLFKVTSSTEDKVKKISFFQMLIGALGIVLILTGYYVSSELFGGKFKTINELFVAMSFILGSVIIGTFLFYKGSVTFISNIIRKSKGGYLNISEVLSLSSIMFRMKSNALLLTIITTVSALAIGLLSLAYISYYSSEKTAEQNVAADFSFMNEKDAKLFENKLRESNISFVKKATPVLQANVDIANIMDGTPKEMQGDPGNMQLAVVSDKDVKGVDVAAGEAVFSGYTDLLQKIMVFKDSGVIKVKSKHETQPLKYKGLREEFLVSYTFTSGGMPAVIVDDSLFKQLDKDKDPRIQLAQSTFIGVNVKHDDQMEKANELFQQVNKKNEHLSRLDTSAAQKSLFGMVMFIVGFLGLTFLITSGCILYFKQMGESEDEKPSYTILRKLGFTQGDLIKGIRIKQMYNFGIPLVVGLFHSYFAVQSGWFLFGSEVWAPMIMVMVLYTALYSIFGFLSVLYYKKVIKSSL

[2] = molecular target: T2, BceB (B. subtilis, UniProt O34741 1-646); experiment: cryo-EM structure
T2 sequence (looked up): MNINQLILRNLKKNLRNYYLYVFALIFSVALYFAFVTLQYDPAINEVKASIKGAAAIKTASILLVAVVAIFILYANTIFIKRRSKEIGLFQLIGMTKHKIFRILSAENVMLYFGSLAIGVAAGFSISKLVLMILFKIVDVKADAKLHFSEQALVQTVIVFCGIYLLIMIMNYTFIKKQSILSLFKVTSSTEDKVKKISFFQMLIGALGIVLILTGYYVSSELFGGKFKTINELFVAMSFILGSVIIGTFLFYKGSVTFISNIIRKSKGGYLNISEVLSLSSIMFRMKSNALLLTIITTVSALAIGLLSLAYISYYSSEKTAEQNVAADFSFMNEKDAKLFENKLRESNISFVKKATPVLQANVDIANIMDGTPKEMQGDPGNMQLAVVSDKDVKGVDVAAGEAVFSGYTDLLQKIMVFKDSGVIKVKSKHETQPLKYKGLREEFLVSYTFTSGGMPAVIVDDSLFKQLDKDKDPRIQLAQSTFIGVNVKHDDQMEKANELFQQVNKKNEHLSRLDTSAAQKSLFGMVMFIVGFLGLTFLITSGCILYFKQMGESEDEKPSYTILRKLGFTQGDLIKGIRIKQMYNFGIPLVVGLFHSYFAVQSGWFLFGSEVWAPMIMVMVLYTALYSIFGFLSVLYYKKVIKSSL

[3] = molecular target: the molecule itself; experiment: cryo-EM structure

[O]=[V]([OH])([OH])[OH] [sodium ortho-vanadate]
colorimetric phosphate-release ATPase assay [1]: potently inhibited by common ATPase inhibitors such as the substrate analog ATP? S or sodium ortho-vanadate

Nc1ncnc2c1ncn2[C@@H]1O[C@H](COP(=O)(O)OP(=O)(O)OP(O)(O)=S)[C@@H](O)[C@H]1O [ATPγS]
colorimetric phosphate-release ATPase assay ([1]; substrate analog): potently inhibited by common ATPase inhibitors such as the substrate analog ATP? S

B1: BceA (natural protein, B. subtilis, UniProt O34697 1-253, looked up)
chain: MVILEANKIRKSYGNKLNKQEVLKGIDIHIEKGEFVSIMGASGSGKTTLLNVLSSIDQVSHGTIHINGNDMTAMKEKQLAEFRKQHLGFIFQDYNLLDTLTVKENILLPLSITKLSKKEANRKFEEVAKELGIYELRDKYPNEISGGQKQRTSAGRAFIHDPSIIFADEPTGALDSKSASDLLNKLSQLNQKRNATIIMVTHDPVAASYCGRVIFIKDGQMYTQLNKGGQDRQTFFQDIMKTQGVLGGVQHEH
stoichiometry N [2]: 2 BceA per BceB

B2: BceA E169Q variant (natural protein, B. subtilis, UniProt O34697 1-253, looked up)
chain: MVILEANKIRKSYGNKLNKQEVLKGIDIHIEKGEFVSIMGASGSGKTTLLNVLSSIDQVSHGTIHINGNDMTAMKEKQLAEFRKQHLGFIFQDYNLLDTLTVKENILLPLSITKLSKKEANRKFEEVAKELGIYELRDKYPNEISGGQKQRTSAGRAFIHDPSIIFADQPTGALDSKSASDLLNKLSQLNQKRNATIIMVTHDPVAASYCGRVIFIKDGQMYTQLNKGGQDRQTFFQDIMKTQGVLGGVQHEH
stoichiometry N [3]: 2
